Reference: ChEMBL document CHEMBL1201862, “PubChem BioAssay data set” (2004)
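1) Cells in 96-well plates. 2) Compound, 48 h, 5 concentrations. 3) Linear interpolation between surrounding doses. 4) Unreached endpoint = highest concentration. GI50 is the concentration that inhibits growth by half.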 Calls of active or inactive are those of the source. No stated cut-off is given here; in the data, active = GI50 up to about 1.1 µM and inactive = higher.

What was measured:
Assay in all cases: NCI anticancer screen, dose series, 48 h
UACC-62 = test system: UACC-62
MDA-MB-231 = test system: MDA-MB-231
RPMI-8226 = test system: RPMI-8226
ACHN = test system: ACHN
SW-620 = test system: SW-620
HCT-15 = test system: HCT-15
NCI-H460 = test system: NCI-H460
SNB-19 = test system: SNB-19
EKVX = test system: EKVX
SF-295 = test system: SF-295
HOP-62 = test system: HOP-62
A498 = test system: A498
MDA-N = test system: MDA-N
SK-MEL-2 = test system: SK-MEL-2
HCT-116 = test system: HCT-116
IGROV-1 = test system: IGROV-1
T47D = test system: T47D
SK-MEL-28 = test system: SK-MEL-28
UACC-257 = test system: UACC-257
SK-MEL-5 = test system: SK-MEL-5
PC-3 = test system: PC-3
MCF7 = test system: MCF7
CAKI-1 = test system: CAKI-1
Hs-578T = test system: Hs-578T
CCRF-CEM = test system: CCRF-CEM
UO-31 = test system: UO-31
U-251 = test system: U-251
KM12 = test system: KM12
NCI-H522 = test system: NCI-H522
DU-145 = test system: DU-145
HT-29 = test system: HT-29
HOP-92 = test system: HOP-92
A549 = test system: A549
SF-539 = test system: SF-539
M14 = test system: M14
NCI-H23 = test system: NCI-H23
OVCAR-5 = test system: OVCAR-5
HCC 2998 = test system: HCC 2998
NCI-H226 = test system: NCI-H226
OVCAR-4 = test system: OVCAR-4
TK-10 = test system: TK-10
OVCAR-3 = test system: OVCAR-3
LOX IMVI = test system: LOX IMVI
OVCAR-8 = test system: OVCAR-8
SN12C = test system: SN12C
BT-549 = test system: BT-549
SK-OV-3 = test system: SK-OV-3
786-0 = test system: 786-0
COLO 205 = test system: COLO 205
RXF 393 = test system: RXF 393
K562 = test system: K562
MDA-MB-435 = test system: MDA-MB-435
SNB-75 = test system: SNB-75
Malme-3M = test system: Malme-3M
SF-268 = test system: SF-268
HL-60 = test system: HL-60
MOLT-4 = test system: MOLT-4
SR = test system: SR

Measured: GI50

CN(C)c1ccc(/C=c2/c3ccccc3n3c2cc(/C=C/c2ccccc2)[n+]3C)cc1
881 nM: HCT-15
inactive: CAKI-1 1.28 µM
active: UACC-62 281 nM | MDA-MB-231 261 nM | RPMI-8226 20.8 nM | ACHN 255 nM | SW-620 91.6 nM | NCI-H460 185 nM | SNB-19 217 nM | EKVX 265 nM | SF-295 225 nM | HOP-62 89.3 nM | A498 266 nM | MDA-N 249 nM | SK-MEL-2 282 nM | HCT-116 82.4 nM | IGROV-1 145 nM | T47D 16.4 nM | SK-MEL-28 269 nM | UACC-257 339 nM | SK-MEL-5 144 nM | PC-3 93.3 nM | MCF7 147 nM | Hs-578T 28.7 nM | CCRF-CEM 20.6 nM | UO-31 344 nM | U-251 39.9 nM | KM12 167 nM | NCI-H522 108 nM | DU-145 100 nM | HT-29 142 nM | HOP-92 35.8 nM | A549 51.2 nM | SF-539 38 nM | M14 218 nM | NCI-H23 78.3 nM | OVCAR-5 502 nM | HCC 2998 121 nM | NCI-H226 110 nM | OVCAR-4 286 nM | TK-10 393 nM | OVCAR-3 141 nM | LOX IMVI 120 nM | OVCAR-8 77.3 nM | SN12C 84.1 nM | BT-549 80 nM | SK-OV-3 296 nM | 786-0 81.5 nM | COLO 205 73 nM | RXF 393 53.8 nM | K562 95.1 nM | MDA-MB-435 135 nM | SNB-75 33 nM | Malme-3M 233 nM | SF-268 114 nM | HL-60 92.7 nM | MOLT-4 74.3 nM | SR 36.7 nM
